Data taken from ChEMBL document CHEMBL1782045, “Discovery, synthesis, and investigation of the antitumor activity of novel piperazinylpyrimidine derivatives” (Eur J Med Chem, 2011).

Experiments:
[1] = target: Cyclin-dependent kinase 19 (Homo sapiens) (UniProt Q9BWU1); experiment: Binding affinity to human CDK11 at 10 uM incubated for 1 hr by kinase binding assay relative to untreated control
NCI-H226 = experiment: Cytotoxicity against human NCI-H226 cells after 48 hrs by sulforhodamine B assay; format: cell-based; conditions: nci-h226, 48 h
NCI-H522 = experiment: Cytotoxicity against human NCI-H522 cells after 48 hrs by sulforhodamine B assay; format: cell-based; conditions: nci-h522, 48 h
786-0 [2] = experiment: Cytotoxicity against human 786-0 cells after 48 hrs by sulforhodamine B assay; format: cell-based; conditions: 786-0, 48 h
U-251 = experiment: Growth inhibition of human U251 cells after 48 hrs by sulforhodamine B assay; format: functional; conditions: U-251, 48 h
HCT-116 [3] = experiment: Cytotoxicity against human HCT116 cells after 48 hrs by sulforhodamine B assay; format: cell-based; conditions: hct-116, 48 h
[4] = tested on: Platelet-derived growth factor receptor alpha (Homo sapiens), P16234 [V561D]; experiment: Inhibition of human PDGFRA V561D using gamma-33P-ATP as substrate assessed as enzyme functional activity at 1 uM by scintillation counting relative to untreated control; parameters: scale not given: the % may be the effect or the level left
SK-OV-3 = experiment: Cytotoxicity against human SKOV3 cells after 48 hrs by sulforhodamine B assay; format: cell-based; conditions: sk-ov-3, 48 h
NCI/ADR-RES = experiment: Growth inhibition of human NCI/ADR-RES cells after 48 hrs by sulforhodamine B assay; format: functional
A498 = experiment: Growth inhibition of human A498 cells after 48 hrs by sulforhodamine B assay; format: functional; conditions: A498, 48 h
OVCAR-5 = experiment: Growth inhibition of human OVCAR5 cells after 48 hrs by sulforhodamine B assay; format: functional; conditions: OVCAR-5, 48 h
SF-539 = experiment: Cytotoxicity against human SF539 cells after 48 hrs by sulforhodamine B assay; format: cell-based; conditions: sf-539, 48 h
NCI-H460 = experiment: Growth inhibition of human NCI-H460 cells after 48 hrs by sulforhodamine B assay; format: functional; conditions: NCI-H460, 48 h
DU-145 = experiment: Cytotoxicity against human DU145 cells after 48 hrs by sulforhodamine B assay; format: cell-based; conditions: du-145, 48 h
NCI-H23 = experiment: Cytotoxicity against human NCI-H23 cells after 48 hrs by sulforhodamine B assay; format: cell-based; conditions: nci-h23, 48 h
MCF7 = experiment: Cytotoxicity against human MCF7 cells after 48 hrs by sulforhodamine B assay; format: cell-based; conditions: mcf7, 48 h
K562 = experiment: Cytotoxicity against human K562 cells after 48 hrs by sulforhodamine B assay; format: cell-based; conditions: k562, 48 h
HCT-116 [5] = experiment: Growth inhibition of human HCT116 cells after 48 hrs by sulforhodamine B assay; format: functional; conditions: HCT-116, 48 h
786-0 [6] = experiment: Growth inhibition of human 786-0 cells after 48 hrs by sulforhodamine B assay; format: functional; conditions: 786-0, 48 h
SK-MEL-2 [7] = experiment: Growth inhibition of human SK-MEL-2 cells after 48 hrs by sulforhodamine B assay; format: functional; conditions: SK-MEL-2, 48 h
[8] = tested on: T1, Receptor-type tyrosine-protein kinase FLT3 (Homo sapiens), P36888 [D835H]; experiment: Binding affinity to human FLT3 D835H mutant at 10 uM incubated for 1 hr by kinase binding assay relative to untreated control
T1 sequence (whole entry): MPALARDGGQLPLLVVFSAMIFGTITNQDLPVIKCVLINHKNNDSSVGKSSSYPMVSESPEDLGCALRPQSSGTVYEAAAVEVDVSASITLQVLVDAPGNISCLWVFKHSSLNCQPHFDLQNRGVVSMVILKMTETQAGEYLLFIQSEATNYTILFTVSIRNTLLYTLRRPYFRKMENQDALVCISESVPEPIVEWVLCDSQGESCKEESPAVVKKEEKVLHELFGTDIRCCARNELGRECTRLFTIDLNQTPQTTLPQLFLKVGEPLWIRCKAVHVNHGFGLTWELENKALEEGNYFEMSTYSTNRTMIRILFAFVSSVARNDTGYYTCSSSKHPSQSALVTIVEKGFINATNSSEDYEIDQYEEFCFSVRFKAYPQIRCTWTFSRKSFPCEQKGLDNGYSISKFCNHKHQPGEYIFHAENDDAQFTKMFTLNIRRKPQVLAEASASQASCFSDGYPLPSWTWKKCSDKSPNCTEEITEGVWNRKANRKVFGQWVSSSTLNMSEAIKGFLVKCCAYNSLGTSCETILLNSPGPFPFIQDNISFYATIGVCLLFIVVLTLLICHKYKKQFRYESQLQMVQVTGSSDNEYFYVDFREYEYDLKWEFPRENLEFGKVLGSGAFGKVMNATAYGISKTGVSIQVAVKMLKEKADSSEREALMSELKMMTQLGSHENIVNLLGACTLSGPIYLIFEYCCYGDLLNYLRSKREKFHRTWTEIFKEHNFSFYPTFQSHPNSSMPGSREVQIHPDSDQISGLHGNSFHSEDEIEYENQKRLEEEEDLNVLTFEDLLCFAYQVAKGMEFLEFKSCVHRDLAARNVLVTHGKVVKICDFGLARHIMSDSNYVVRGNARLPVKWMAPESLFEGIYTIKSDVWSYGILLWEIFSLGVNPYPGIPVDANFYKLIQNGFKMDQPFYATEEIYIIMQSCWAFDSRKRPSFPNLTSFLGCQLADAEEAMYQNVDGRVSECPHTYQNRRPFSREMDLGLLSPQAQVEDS

HT-29 [9] = experiment: Cytotoxicity against human HT-29 cells after 48 hrs by sulforhodamine B assay; format: cell-based; conditions: ht-29, 48 h
HT-29 [10] = experiment: Growth inhibition of human HT-29 cells after 48 hrs by sulforhodamine B assay; format: functional; conditions: HT-29, 48 h
UACC-62 = experiment: Cytotoxicity against human UACC62 cells after 48 hrs by sulforhodamine B assay; format: cell-based; conditions: uacc-62, 48 h
COLO 205 = experiment: Growth inhibition of human COLO205 cells after 48 hrs by sulforhodamine B assay; format: functional; conditions: COLO 205, 48 h
NCI-H322M = experiment: Growth inhibition of human NCI-H322M cells after 48 hrs by sulforhodamine B assay; format: functional
KM12 = experiment: Growth inhibition of human KM12 cells after 48 hrs by sulforhodamine B assay; format: functional; conditions: KM12, 48 h
OVCAR-4 = experiment: Cytotoxicity against human OVCAR4 cells after 48 hrs by sulforhodamine B assay; format: cell-based; conditions: ovcar-4, 48 h
SK-MEL-2 [11] = experiment: Cytotoxicity against human SK-MEL-2 cells after 48 hrs by sulforhodamine B assay; format: cell-based; conditions: sk-mel-2, 48 h
Malme-3M = experiment: Cytotoxicity against human MALME-3M cells after 48 hrs by sulforhodamine B assay; format: cell-based
SW-620 = experiment: Cytotoxicity against human SW620 cells after 48 hrs by sulforhodamine B assay; format: cell-based; conditions: sw-620, 48 h
IGROV-1 = experiment: Cytotoxicity against human IGROV1 cells after 48 hrs by sulforhodamine B assay; format: cell-based; conditions: igrov-1, 48 h
HCT-15 = experiment: Cytotoxicity against human HCT15 cells after 48 hrs by sulforhodamine B assay; format: cell-based; conditions: hct-15, 48 h

Sequence of Cyclin-dependent kinase 19 (Homo sapiens) (Q9BWU1 whole entry): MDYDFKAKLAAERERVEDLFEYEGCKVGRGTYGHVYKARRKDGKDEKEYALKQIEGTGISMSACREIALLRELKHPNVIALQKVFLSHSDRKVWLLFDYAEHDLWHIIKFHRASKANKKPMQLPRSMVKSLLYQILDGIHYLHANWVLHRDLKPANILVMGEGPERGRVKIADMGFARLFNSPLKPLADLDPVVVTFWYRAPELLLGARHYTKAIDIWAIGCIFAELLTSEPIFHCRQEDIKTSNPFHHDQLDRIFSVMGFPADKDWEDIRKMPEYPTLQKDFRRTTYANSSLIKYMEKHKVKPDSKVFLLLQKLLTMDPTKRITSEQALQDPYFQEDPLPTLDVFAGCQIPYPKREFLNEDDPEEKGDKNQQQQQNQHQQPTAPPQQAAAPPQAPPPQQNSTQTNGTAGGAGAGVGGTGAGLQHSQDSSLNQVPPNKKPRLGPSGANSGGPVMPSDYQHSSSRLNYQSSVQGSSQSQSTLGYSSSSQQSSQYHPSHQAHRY
Sequence of Platelet-derived growth factor receptor alpha (Homo sapiens), P16234 [V561D] (P16234 whole entry V561D): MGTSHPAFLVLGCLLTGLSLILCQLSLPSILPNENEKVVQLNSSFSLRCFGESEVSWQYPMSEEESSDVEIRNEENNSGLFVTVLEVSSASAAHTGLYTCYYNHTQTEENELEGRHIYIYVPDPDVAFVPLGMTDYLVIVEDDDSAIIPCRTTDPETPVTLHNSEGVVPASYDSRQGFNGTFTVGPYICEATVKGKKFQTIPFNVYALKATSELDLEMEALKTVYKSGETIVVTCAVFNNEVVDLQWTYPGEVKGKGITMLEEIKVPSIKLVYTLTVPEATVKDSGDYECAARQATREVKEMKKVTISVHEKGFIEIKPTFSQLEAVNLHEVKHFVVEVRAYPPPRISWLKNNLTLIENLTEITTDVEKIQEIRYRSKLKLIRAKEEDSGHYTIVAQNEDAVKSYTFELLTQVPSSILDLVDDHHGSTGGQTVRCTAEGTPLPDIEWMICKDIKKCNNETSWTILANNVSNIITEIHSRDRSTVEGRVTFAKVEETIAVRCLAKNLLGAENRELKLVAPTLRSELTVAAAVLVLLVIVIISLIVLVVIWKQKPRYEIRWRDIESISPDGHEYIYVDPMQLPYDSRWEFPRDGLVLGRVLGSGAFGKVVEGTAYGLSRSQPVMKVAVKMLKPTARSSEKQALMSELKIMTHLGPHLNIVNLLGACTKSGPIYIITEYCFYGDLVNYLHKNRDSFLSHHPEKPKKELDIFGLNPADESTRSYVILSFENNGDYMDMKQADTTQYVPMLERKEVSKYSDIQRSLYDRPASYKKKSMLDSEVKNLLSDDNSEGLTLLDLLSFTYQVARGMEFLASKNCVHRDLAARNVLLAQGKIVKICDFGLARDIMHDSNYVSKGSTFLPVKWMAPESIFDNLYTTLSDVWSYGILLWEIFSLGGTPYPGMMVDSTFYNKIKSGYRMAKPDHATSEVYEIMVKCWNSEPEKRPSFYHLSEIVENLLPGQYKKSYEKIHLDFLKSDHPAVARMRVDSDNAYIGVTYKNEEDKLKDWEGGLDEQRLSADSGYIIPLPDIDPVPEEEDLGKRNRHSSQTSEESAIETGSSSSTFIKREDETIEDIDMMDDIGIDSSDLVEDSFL

Structure (SMILES) | Activity [1] [%] | LC50 (NCI-H226) [µM] | LC50 (NCI-H522) [µM] | LC50 (786-0 [2]) [µM] | TGI (U-251) [µM] | LC50 (HCT-116 [3]) [µM] | Activity [4] [%] | LC50 (SK-OV-3) [µM] | TGI (NCI/ADR-RES) [µM] | TGI (A498) [µM] | TGI (OVCAR-5) [µM] | LC50 (SF-539) [µM] | TGI (NCI-H460) [µM] | LC50 (DU-145) [µM] | LC50 (NCI-H23) [µM] | LC50 (MCF7) [µM] | LC50 (K562) [µM] | TGI (HCT-116 [5]) [µM] | TGI (786-0 [6]) [µM] | TGI (SK-MEL-2 [7]) [µM] | further results
c1ccc(Cc2cnc(N3CCN(c4ncnc5ccccc45)CC3)nc2)cc1 | 0 | > 100 | > 100 | > 100 | 24.6 | 36.4 | 20 | > 100 | 17.6 | 24.2 | 69.8 | 56.1 | 23.7 | 79.8 | > 100 | > 100 | > 100 | 13.2 | 36.7 | 35.8 | Activity [8]: 46%; LC50 (HT-29 [9]): 79.2 µM; TGI (HT-29 [10]): 35.1 µM; LC50 (UACC-62): 63.1 µM; TGI (COLO 205): > 100 µM; TGI (NCI-H322M): > 100 µM; TGI (KM12): 25.1 µM; LC50 (OVCAR-4): > 100 µM; LC50 (SK-MEL-2 [11]): 70.3 µM; LC50 (Malme-3M): 89.2 µM; LC50 (SW-620): 59.9 µM; LC50 (IGROV-1): > 100 µM; LC50 (HCT-15): > 100 µM
CCc1cnc(N2CCN(C(=O)c3ccc(CNc4ncnc5ccccc45)cc3)CC2)nc1 | 47 | > 100 | > 100 | > 100 | > 100 | > 100 | 100 | > 100 | 21.5 | > 100 | > 100 | > 100 | 30.7 | > 100 | > 100 | > 100 | > 100 | 25 | 54.8 | > 100 | Activity [8]: > 50%; LC50 (HT-29 [9]): > 100 µM; TGI (HT-29 [10]): 83.2 µM; LC50 (UACC-62): > 100 µM; TGI (COLO 205): 38.2 µM; TGI (NCI-H322M): > 100 µM; TGI (KM12): 24.3 µM; LC50 (OVCAR-4): > 100 µM; LC50 (SK-MEL-2 [11]): > 100 µM; LC50 (Malme-3M): > 100 µM; LC50 (SW-620): > 100 µM; LC50 (IGROV-1): > 100 µM; LC50 (HCT-15): > 100 µM
O=C(c1cccc(Nc2ncnc3ccccc23)c1)N1CCN(c2ncc(Cc3ccccc3)cn2)CC1 | > 50 | 7.94 | 5.13 | > 100 | 6.61 | > 100 | 100 | > 100 | 8.51 | 5.37 | 5.75 | > 100 | 4.27 | > 100 | 6.92 | 5.62 | > 100 | 3.55 | 6.61 | 2.69 | Activity [8]: > 50%; LC50 (HT-29 [9]): > 100 µM; TGI (HT-29 [10]): 9.33 µM; LC50 (UACC-62): 5.37 µM; TGI (COLO 205): 2.75 µM; TGI (NCI-H322M): 4.79 µM; TGI (KM12): 2.4 µM; LC50 (OVCAR-4): 7.59 µM; LC50 (SK-MEL-2 [11]): 5.89 µM; LC50 (Malme-3M): 5.25 µM; LC50 (SW-620): > 100 µM; LC50 (IGROV-1): 5.01 µM; LC50 (HCT-15): 9.33 µM
